Patent publication US10144745B2, “Chimeric compounds targeting proteins, compositions, methods, and uses thereof” (BioTheryX, Inc., priority 2016, dated 2018)

Columns and labels:
Daudi cells = assay: Daudi Cell Proliferation (WST-1 cell viability); assay type: cell-based; conditions: Homo sapiens, 96 h; Daudi cells (Burkitt lymphoma cell line), treated for 4 days, viability by WST-1 relative to vehicle control
Description: Daudi cells, a Burkitt lymphoma cell line, was treated for 4 days with the indicated compound (10 nM, 100 nM, 1 μM, 10 μM, and 100 μM) or vehicle (DMSO), and cell viability was determined using the WST-1 tetrazolium reagent (Roche), and results were expressed as the percentage viability relative to the vehicle control, which was set at 100%. Based on resulting data, an IC50 was calculated for each compound.
IC50 values less than or equal to 2 μM are represented by “A;” IC50 values greater than 2 μM and less than or equal to 30 μM are represented by “B;” and IC50 values greater than 30 μM are represented by “C.”

FES = biological target: T1, FES (Homo sapiens, UniProt P07332); assay: Kinase Inhibition Assay (kinase-tagged phage / affinity bead competition binding, qPCR); conditions: Compounds were tested at 500 nM; read-out: FES (Percent Control)
T1 construct: made in house
T1 sequence (P07332 whole entry, species assumed): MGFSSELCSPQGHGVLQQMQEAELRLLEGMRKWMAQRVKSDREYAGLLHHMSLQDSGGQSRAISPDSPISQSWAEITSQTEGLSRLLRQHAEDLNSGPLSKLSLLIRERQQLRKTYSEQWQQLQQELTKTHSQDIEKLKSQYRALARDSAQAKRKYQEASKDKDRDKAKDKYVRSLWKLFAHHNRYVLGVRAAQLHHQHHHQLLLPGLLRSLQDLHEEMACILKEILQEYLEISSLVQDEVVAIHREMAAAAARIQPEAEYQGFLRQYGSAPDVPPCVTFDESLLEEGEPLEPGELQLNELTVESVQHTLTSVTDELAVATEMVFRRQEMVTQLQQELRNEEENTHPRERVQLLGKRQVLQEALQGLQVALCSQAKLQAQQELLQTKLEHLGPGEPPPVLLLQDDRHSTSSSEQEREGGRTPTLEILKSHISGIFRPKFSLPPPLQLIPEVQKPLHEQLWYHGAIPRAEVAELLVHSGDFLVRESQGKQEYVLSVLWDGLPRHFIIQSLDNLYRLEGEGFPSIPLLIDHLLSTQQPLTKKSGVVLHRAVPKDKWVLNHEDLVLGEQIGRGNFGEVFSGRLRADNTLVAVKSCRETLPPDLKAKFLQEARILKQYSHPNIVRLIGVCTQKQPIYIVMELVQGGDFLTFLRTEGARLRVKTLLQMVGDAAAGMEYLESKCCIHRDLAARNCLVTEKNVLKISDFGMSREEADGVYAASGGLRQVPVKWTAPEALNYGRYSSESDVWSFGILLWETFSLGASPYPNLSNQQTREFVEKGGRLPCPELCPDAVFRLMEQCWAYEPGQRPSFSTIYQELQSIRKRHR
Description: Kinase-tagged T7 phage strains were grown in parallel in 24-well blocks in an E. coli host derived from the BL21 strain. E. coli were grown to log-phase and infected with T7 phage from a frozen stock (multiplicity of infection=0.4) and incubated with shaking at 32° C. until lysis (90-150 minutes). The lysates were centrifuged (6,000×g) and filtered (0.2 μm) to remove cell debris. The remaining kinases were produced in HEK-293 cells and subsequently tagged with DNA for qPCR detection. […] The liganded beads were blocked with excess biotin and washed with blocking buffer (SeaBlock (Pierce), 1% BSA, 0.05% Tween 20, 1 mM DTT) to remove unbound ligand and to reduce non-specific phage binding.
Test compounds were prepared as 40× stocks in 100% DMSO and directly diluted into the assay. […] The kinase concentration in the eluates was measured by qPCR.

FGFR (G697C) = biological target: T2, FGFR (G697C) (Homo sapiens, UniProt P22607, G697C); assay: as above; conditions: Compounds were tested at 500 nM; read-out: FGFR (G697C) (Percent Control)
T2 construct: made in house
T2 sequence (P22607 23-806 G697C): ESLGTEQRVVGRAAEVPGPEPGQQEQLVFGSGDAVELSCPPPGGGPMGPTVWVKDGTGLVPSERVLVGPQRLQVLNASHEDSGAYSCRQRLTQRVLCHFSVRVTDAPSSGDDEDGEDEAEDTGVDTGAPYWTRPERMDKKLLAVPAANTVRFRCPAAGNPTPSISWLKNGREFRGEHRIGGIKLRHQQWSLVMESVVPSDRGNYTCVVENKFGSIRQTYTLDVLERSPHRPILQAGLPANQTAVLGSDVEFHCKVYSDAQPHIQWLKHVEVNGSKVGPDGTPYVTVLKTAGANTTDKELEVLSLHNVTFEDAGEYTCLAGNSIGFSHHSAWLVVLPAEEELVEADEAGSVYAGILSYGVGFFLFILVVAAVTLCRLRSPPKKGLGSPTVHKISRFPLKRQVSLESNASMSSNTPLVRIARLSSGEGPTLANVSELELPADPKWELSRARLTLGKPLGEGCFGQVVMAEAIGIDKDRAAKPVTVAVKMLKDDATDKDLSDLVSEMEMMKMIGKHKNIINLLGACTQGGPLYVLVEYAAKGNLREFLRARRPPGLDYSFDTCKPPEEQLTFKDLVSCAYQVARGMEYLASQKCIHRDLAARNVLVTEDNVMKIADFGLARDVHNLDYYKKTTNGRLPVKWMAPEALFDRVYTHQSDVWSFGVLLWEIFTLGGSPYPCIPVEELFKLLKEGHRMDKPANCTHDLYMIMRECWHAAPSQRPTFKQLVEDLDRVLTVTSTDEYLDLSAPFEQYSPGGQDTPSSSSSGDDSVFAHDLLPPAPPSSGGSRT
Description: Kinase-tagged T7 phage strains were grown in parallel in 24-well blocks in an E. coli host derived from the BL21 strain. E. coli were grown to log-phase and infected with T7 phage from a frozen stock (multiplicity of infection=0.4) and incubated with shaking at 32° C. until lysis (90-150 minutes). The lysates were centrifuged (6,000×g) and filtered (0.2 μm) to remove cell debris. The remaining kinases were produced in HEK-293 cells and subsequently tagged with DNA for qPCR detection. Streptavidin-coated magnetic beads were treated with biotinylated small molecule ligands for 30 minutes at room temperature to generate affinity resins for kinase assays. The liganded beads were blocked with excess biotin and washed with blocking buffer (SeaBlock (Pierce), 1% BSA, 0.05% Tween 20, 1 mM DTT) to remove unbound ligand and to reduce non-specific phage binding.
Binding reactions were assembled by combining kinases, liganded affinity beads, and test compounds in 1× binding buffer (20% SeaBlock, 0.17×PBS, 0.05 Tween 20, 6 mM DTT). Test compounds were prepared as 40× stocks in 100% DMSO and directly diluted into the assay. All reactions were performed in polypropylene 384-well plates in a final volume of 0.02 mL. The assay plates were incubated at room temperature with shaking for 1 hour and the affinity beads were washed with wash buffer (1×PBS, 0.05% Tween 20). […]

IC50 (Daudi cells) [µM]	remaining binding at 0.5 µM (FES) [%]	remaining binding at 0.5 µM (FGFR (G697C)) [%]	Compound
2 to 30			O=C1CCC[C@H](N2Cc3c(cccc3C(F)F)C2=O)C(=O)N1 [Compound 42, (S)-3-(4-(Difluoromethyl)-1-oxoisoindolin-2-yl)azepane-2,7-dione]
≤ 2			C=C(C)c1cccc2c1CN([C@H]1CCCC(=O)NC1=O)C2=O [Compound 43, (S)-3-(1-Oxo-4-(prop-1-en-2-yl)isoindolin-2-yl)azepane-2,7-dione]
> 30			CC(C)c1cccc2c1CN([C@H]1CCCC(=O)NC1=O)C2=O [Compound 45, (S)-3-(4-Isopropyl-1-oxoisoindolin-2-yl)azepane-2,7-dione]
	15	4.8	Cc1cnc(Nc2ccc(OCCCNCC(=O)Nc3cccc4c3CN([C@H]3CCCC(=O)NC3=O)C4=O)cc2)nc1Nc1cccc(S(=O)(=O)NC(C)(C)C)c1 [Compound 66, (S)-2-((3-(4-((4-((3-(N-(tert-Butyl)sulfamoyl)phenyl)amino)-5-methylpyrimidin-2-yl)amino)phenoxy)propyl)amino)-N-(2-(2,7-dioxoazepan-3-yl)-1-oxoisoindolin-4-yl)acetamide]
		57	Cc1cnc(Nc2ccc(OCCN3CCCC3)cc2)nc1Nc1cccc(S(=O)(=O)NC(C)(C)C)c1 [Fedratinib, reference compound]
> 30			Nc1cccc2c1CN(C1CCC(=O)NC1=O)C2=O (stereo not shown) [Lenalidomide, reference compound]
